# Measured values as given in patent publication US11472842B2 (Protagonist Therapeutics, Inc., priority 2015, dated 2022).
# Molecular target: T1, human ferroportin (Homo sapiens, UniProt Q9NP59)
# T1 construct: expressed in transfected cells
# T1 sequence (Q9NP59 1-571): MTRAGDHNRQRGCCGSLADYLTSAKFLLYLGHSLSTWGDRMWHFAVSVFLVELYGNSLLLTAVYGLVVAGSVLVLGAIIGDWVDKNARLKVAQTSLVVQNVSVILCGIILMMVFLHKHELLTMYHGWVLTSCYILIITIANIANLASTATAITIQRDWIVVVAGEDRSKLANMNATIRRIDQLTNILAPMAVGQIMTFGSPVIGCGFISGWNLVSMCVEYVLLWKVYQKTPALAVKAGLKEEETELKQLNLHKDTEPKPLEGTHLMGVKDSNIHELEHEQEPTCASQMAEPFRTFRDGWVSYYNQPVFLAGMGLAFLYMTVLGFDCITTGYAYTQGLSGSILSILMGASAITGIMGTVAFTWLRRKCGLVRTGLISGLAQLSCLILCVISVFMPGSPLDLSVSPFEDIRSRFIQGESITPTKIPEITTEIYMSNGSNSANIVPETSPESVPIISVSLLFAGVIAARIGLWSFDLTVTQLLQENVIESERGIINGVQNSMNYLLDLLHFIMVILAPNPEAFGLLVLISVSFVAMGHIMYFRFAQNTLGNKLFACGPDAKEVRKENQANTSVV
# Test: Ferroportin internalization / degradation, HEK-GFP cell based assay (HEK293 cells stably expressing ferroportin-GFP, decrease in GFP fluorescence)
# Conditions: Table 3 monomer analogues; ferroportin-GFP HEK293 cells, 18-24 h incubation; read-out: HEK-GFP cell based assay (potency EC50)
# Protocol: Peptide analogues were tested in vitro for induction of internalization of the human ferroportin protein. Following internalization, the […] are degraded. The assay measures a decrease in fluorescence of the receptor.
# The cDNA encoding the human ferroportin (SLC40A1) was cloned from a cDNA clone from Origene (NM_014585). The DNA encoding the ferroportin was amplified by PCR using primers also encoding terminal restriction sites for subcloning, but without the termination codon. The ferroportin receptor was subcloned into a mammalian GFP expression vector containing a neomycin (G418) resistance marker in such that the reading frame of the ferroportin was fused in frame with the GFP protein. The fidelity of the DNA encoding the protein was confirmed by DNA sequencing. HEK293 cells were used for transfection of the ferroportin-GFP receptor expression plasmid. The cells were grown according to standard protocol in growth medium and transfected with the plasmids using Lipofectamine (manufacturer's protocol, Invitrogen). […] The cells were propagated and frozen in aliquots.
# Compound was added to desired final concentration for at least 18 hours in the incubator. […] Compound was added to desired final concentration for at least 18 hours but no more than 24 hours in the incubator.
# The EC50 of these reference compounds for ferroportin degradation was determined according to the activity assay described above. These peptides served as control standards.
# These values were determined as described herein.
row,DC50,SMILES
1,10 nM,CCCCCCCCCCCCCCCC(=O)N[C@@H](CCC(=O)NCCCC[C@@H]1NC(=O)[C@H](Cc2ccccc2)NC(=O)[C@H](CCCCN)NC(=O)[C@H]([C@@H](C)CC)NC(=O)[C@@H](NC(=O)[C@@H]2CCCN2C(=O)[C@H](Cc2ccccc2)NC(=O)[C@H](Cc2c[nH]cn2)NC(=O)[C@@H](NC(=O)[C@H](CC(=O)O)NC(=O)CC(C)C)[C@@H](C)O)CSSC[C@@H](C(N)=O)NC(=O)CN(C)C(=O)[C@H](CCCCN)NC(=O)[C@H](CO)NC(=O)[C@H](CCCNC(=N)N)NC(=O)[C@@H]2CCCN2C1=O)C(=O)O [Compound 10]
2,23 nM,"CCCCCCCCCCCCCCCC(=O)NCCCCCC(=O)N[C@@H](CCC(=O)NCCCC[C@@H]1NC(=O)[C@H]([C@@H](C)CC)NC(=O)[C@@H](NC(=O)[C@@H]2CCCN2C(=O)[C@H](Cc2ccccc2)NC(=O)[C@H](Cc2c[nH]cn2)NC(=O)[C@@H](NC(=O)[C@H](CC(=O)O)NC(=O)CC(C)C)[C@@H](C)O)CSSC[C@@H](C(=O)N[C@@H](CCCCN)C(N)=O)NC(=O)CN(C)C(=O)[C@H](CCCCN)NC(=O)[C@H](CO)NC(=O)[C@H](CCCNC(=N)N)NC(=O)[C@@H]2CCCN2C(=O)[C@H](CCC(=O)O)NC(=O)[C@H](Cc2ccccc2)NC1=O)C(=O)O [Compound 28, Isovaleric acid-DTHFPCI-[Lys(isoGlu-Ahx-Palm)]-FEPRSK-[Sar]-CK-NH2]"
3,68 nM,"CCCCCCCCCCCCCCCC(=O)N[C@@H](CCC(=O)NCCCC[C@@H]1NC(=O)[C@H](Cc2ccccc2)NC(=O)[C@H](CCCCN)NC(=O)[C@H]([C@@H](C)CC)NC(=O)[C@@H](NC(=O)[C@@H]2CCCN2C(=O)[C@H](Cc2ccccc2)NC(=O)[C@H](Cc2c[nH]cn2)NC(=O)[C@@H](NC(=O)[C@H](CC(=O)O)NC(=O)CC(C)C)[C@@H](C)O)C(C)(C)SSC[C@@H](C(=O)N[C@@H](CCCCN)C(N)=O)NC(=O)CNC(=O)[C@H](CCCCN)NC(=O)[C@H](CO)NC(=O)[C@H](CCCNC(=N)N)NC(=O)[C@@H]2CCCN2C1=O)C(=O)O [Compound 4, Isovaleric acid-DTHFP-[Pen]-IKF-[Lys(IsoGlu-Palm)]-PRSKGCK-NH2]"
4,36 nM,CCCCCCCCCCCCCCCC(=O)NCCOCCOCCC(=O)NCCCC[C@@H]1NC(=O)[C@H](Cc2ccccc2)NC(=O)[C@H](CCCCN)NC(=O)[C@H]([C@@H](C)CC)NC(=O)[C@@H](NC(=O)[C@@H]2CCCN2C(=O)[C@H](Cc2ccccc2)NC(=O)[C@H](Cc2c[nH]cn2)NC(=O)[C@@H](NC(=O)[C@H](CC(=O)O)NC(=O)CC(C)C)[C@@H](C)O)CSSC[C@@H](C(=O)N[C@@H](CCCCN)C(N)=O)NC(=O)CNC(=O)[C@H](CCCCN)NC(=O)[C@H](CO)NC(=O)[C@H](CCCNC(=N)N)NC(=O)[C@@H]2CCCN2C1=O [Compound 16]
5,14 nM,CC[C@H](C)[C@@H]1NC(=O)[C@@H](NC(=O)[C@@H]2CCCN2C(=O)[C@H](Cc2ccccc2)NC(=O)[C@H](Cc2c[nH]cn2)NC(=O)[C@@H](NC(=O)[C@H](CC(=O)O)NC(=O)CC(C)C)[C@@H](C)O)CSSC[C@@H](C(=O)N[C@@H](CCCCN)C(N)=O)NC(=O)CNC(=O)[C@H](CCCCN)NC(=O)[C@H](CO)NC(=O)[C@H](CCCNC(=N)N)NC(=O)[C@@H]2CCCN2C(=O)[C@H](CCCCNC(C)=O)NC(=O)[C@H](Cc2ccccc2)NC(=O)[C@H](CCCCN)NC1=O [Compound 25]
6,29 nM,CC[C@H](C)[C@@H]1NC(=O)[C@@H](NC(=O)[C@@H]2CCCN2C(=O)[C@H](Cc2ccccc2)NC(=O)[C@H](Cc2c[nH]cn2)NC(=O)[C@@H](NC(=O)[C@H](CC(=O)O)NC(=O)CC(C)C)[C@@H](C)O)CSSC[C@@H](C(=O)N[C@@H](CCCCN)C(N)=O)NC(=O)CNC(=O)[C@H](CCCCN)NC(=O)[C@H](CO)NC(=O)[C@H](CCCNC(=N)N)NC(=O)[C@@H]2CCCN2C(=O)[C@H](CCCCNC(=O)CC[C@H](NC(=O)CCCC[C@@H]2SC[C@@H]3NC(=O)N[C@@H]32)C(=O)O)NC(=O)[C@H](Cc2ccccc2)NC(=O)[C@H](CCCCN)NC1=O [Compound 14]
7,26 nM,CC[C@H](C)[C@@H]1NC(=O)[C@@H](NC(=O)[C@@H]2CCCN2C(=O)[C@H](Cc2ccccc2)NC(=O)[C@H](Cc2c[nH]cn2)NC(=O)[C@@H](NC(=O)[C@H](CC(=O)O)NC(=O)CC(C)C)[C@@H](C)O)CSSC[C@@H](C(=O)N[C@@H](CCCCN)C(N)=O)NC(=O)CNC(=O)[C@H](CCCCN)NC(=O)[C@H](CO)NC(=O)[C@H](CCCNC(=N)N)NC(=O)[C@@H]2CCCN2C(=O)[C@H](CCCCNC(=O)CC[C@H](NC(=O)CC(C)C)C(=O)O)NC(=O)[C@H](Cc2ccccc2)NC(=O)[C@H](CCCCN)NC1=O [Compound 15]
8,18 nM,CCCCCCCCCCCCCCCC(=O)NCCCCCC(=O)NCCCC[C@@H]1NC(=O)[C@H](Cc2ccccc2)NC(=O)[C@H](CCCCN)NC(=O)[C@H]([C@@H](C)CC)NC(=O)[C@@H](NC(=O)[C@@H]2CCCN2C(=O)[C@H](Cc2ccccc2)NC(=O)[C@H](Cc2c[nH]cn2)NC(=O)[C@@H](NC(=O)[C@H](CC(=O)O)NC(=O)CC(C)C)[C@@H](C)O)CSSC[C@@H](C(=O)N[C@@H](CCCCN)C(N)=O)NC(=O)CNC(=O)[C@H](CCCCN)NC(=O)[C@H](CO)NC(=O)[C@H](CCCNC(=N)N)NC(=O)[C@@H]2CCCN2C1=O [Compound 22]
9,14 nM,CCCCCCCCCCCC(=O)N[C@@H](CCC(=O)NCCCC[C@@H]1NC(=O)[C@H](Cc2ccccc2)NC(=O)[C@H](CCCCN)NC(=O)[C@H]([C@@H](C)CC)NC(=O)[C@@H](NC(=O)[C@@H]2CCCN2C(=O)[C@H](Cc2ccccc2)NC(=O)[C@H](Cc2c[nH]cn2)NC(=O)[C@@H](NC(=O)[C@H](CC(=O)O)NC(=O)CC(C)C)[C@@H](C)O)CSSC[C@@H](C(=O)N[C@@H](CCCCN)C(N)=O)NC(=O)CNC(=O)[C@H](CCCCN)NC(=O)[C@H](CO)NC(=O)[C@H](CCCNC(=N)N)NC(=O)[C@@H]2CCCN2C1=O)C(=O)O [Compound 12]
10,10 nM,CCCCCCCCCCCCCCCC(=O)NCCCCCC(=O)NCCCC[C@@H]1NC(=O)[C@H](Cc2ccccc2)NC(=O)[C@H](CCCCN)NC(=O)[C@H]([C@@H](C)CC)NC(=O)[C@@H](NC(=O)[C@@H]2CCCN2C(=O)[C@H](Cc2ccccc2)NC(=O)[C@H](Cc2c[nH]cn2)NC(=O)[C@@H](NC(=O)[C@H](CC(=O)O)NC(=O)CC(C)C)[C@@H](C)O)CSSC[C@@H](C(=O)N[C@@H](CCCCN)C(N)=O)NC(=O)CN(C)C(=O)[C@H](CCCCN)NC(=O)[C@H](CO)NC(=O)[C@H](CCCNC(=N)N)NC(=O)[C@@H]2CCCN2C1=O [Compound 24]
11,11 nM,CCCCCCCCCCCCCCCC(=O)N[C@@H](CCC(=O)NCCCC[C@@H]1NC(=O)[C@H](Cc2ccccc2)NC(=O)[C@H](CCCCN)NC(=O)[C@H]([C@@H](C)CC)NC(=O)[C@@H](NC(=O)[C@@H]2CCCN2C(=O)[C@H](Cc2ccccc2)NC(=O)[C@H](Cc2c[nH]cn2)NC(=O)[C@@H](NC(=O)[C@H](CC(=O)O)NC(=O)CC(C)C)[C@@H](C)O)CSSC[C@@H](C(N)=O)NC(=O)CNC(=O)[C@H](CCCCN)NC(=O)[C@H](CO)NC(=O)[C@H](CCCNC(=N)N)NC(=O)[C@@H]2CCCN2C1=O)C(=O)O [Compound 9]
12,10 nM,CCCCCCCCCCCCCC(=O)N[C@@H](CCC(=O)NCCCC[C@@H]1NC(=O)[C@H](Cc2ccccc2)NC(=O)[C@H](CCCCN)NC(=O)[C@H]([C@@H](C)CC)NC(=O)[C@@H](NC(=O)[C@@H]2CCCN2C(=O)[C@H](Cc2ccccc2)NC(=O)[C@H](Cc2c[nH]cn2)NC(=O)[C@@H](NC(=O)[C@H](CC(=O)O)NC(=O)CC(C)C)[C@@H](C)O)CSSC[C@@H](C(=O)N[C@@H](CCCCN)C(N)=O)NC(=O)CNC(=O)[C@H](CCCCN)NC(=O)[C@H](CO)NC(=O)[C@H](CCCNC(=N)N)NC(=O)[C@@H]2CCCN2C1=O)C(=O)O [Compound 13]

# Same assay, conditions: Table 9 reference compounds; ferroportin degradation; read-out: Potency EC50
row,SMILES,EC50
1,"CC[C@H](C)[C@H](NC(=O)[C@H](CS)NC(=O)[C@@H](NC(=O)[C@@H]1CCCN1C(=O)[C@H](Cc1ccccc1)NC(=O)[C@H](Cc1c[nH]cn1)NC(=O)[C@@H](NC(=O)[C@@H](N)CC(=O)O)[C@@H](C)O)[C@@H](C)CC)C(=O)N[C@@H](Cc1ccccc1)C(N)=O [Mini-Hepcidin 1-9, reference compound]",712 nM

# Same assay, conditions: Table 9 reference compounds; read-out: Potency EC50
row,DC50,SMILES
1,> 10000 nM,"CC[C@@H](C)[C@@H](NC(=O)[C@H](N)Cc1ccccc1)C(=O)N[C@H](CS)C(=O)N[C@@H](C(=O)N1CCC[C@@H]1C(=O)N[C@H](Cc1ccccc1)C(=O)N[C@H](Cc1c[nH]cn1)C(=O)N[C@@H](C(=O)N[C@H](CC(=O)O)C(N)=O)[C@H](C)O)[C@H](C)CC [RI-Mini Hepcidin, Hy-DPhe-DIle-DCys-DIle-DPro-DPhe-DHis-DThr-DAsp-NH2, reference compound]"
